Experimental data reported in patent US20230009626A1 (ICHNOS SCIENCES S.A., priority 2018, published 2023).

Molecular target: HPK1 (MAP4K1) (Homo sapiens, UniProt Q92918)
Assay: FRET Assay for HPK1 (MAP4K1): one step binding assay, displacement of labeled tracer
Conditions: for inhibition at 1 µM: 1 μM compound; for inhibition at 1 µM / inhibition at 10 µM: FRET ratio 665/620, percent of control; for inhibition at 10 µM: 10 μM compound; for IC50: dose response curve, nonlinear regression
In short: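 Percent inhibition at 1.0 and 10.0 μM and IC50 by nonlinear regression were derived from loss of FRET signal versus control. The signal runs from Eu-anti-GST antibody (4 nM) bound to 10 nM HPK1 kinase to Alexa Fluor 647 Kinase Tracer 222 (20 nM), added after a 15-min on-ice compound pre-incubation. Binding then proceeded 1 h at room temperature in HEPES pH 7.5 buffer with 10 mM MgCl2, 1 mM EGTA, 0.01% Brij-35 and 3% DMSO.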

Sequence of HPK1 (MAP4K1) (Q92918 whole entry): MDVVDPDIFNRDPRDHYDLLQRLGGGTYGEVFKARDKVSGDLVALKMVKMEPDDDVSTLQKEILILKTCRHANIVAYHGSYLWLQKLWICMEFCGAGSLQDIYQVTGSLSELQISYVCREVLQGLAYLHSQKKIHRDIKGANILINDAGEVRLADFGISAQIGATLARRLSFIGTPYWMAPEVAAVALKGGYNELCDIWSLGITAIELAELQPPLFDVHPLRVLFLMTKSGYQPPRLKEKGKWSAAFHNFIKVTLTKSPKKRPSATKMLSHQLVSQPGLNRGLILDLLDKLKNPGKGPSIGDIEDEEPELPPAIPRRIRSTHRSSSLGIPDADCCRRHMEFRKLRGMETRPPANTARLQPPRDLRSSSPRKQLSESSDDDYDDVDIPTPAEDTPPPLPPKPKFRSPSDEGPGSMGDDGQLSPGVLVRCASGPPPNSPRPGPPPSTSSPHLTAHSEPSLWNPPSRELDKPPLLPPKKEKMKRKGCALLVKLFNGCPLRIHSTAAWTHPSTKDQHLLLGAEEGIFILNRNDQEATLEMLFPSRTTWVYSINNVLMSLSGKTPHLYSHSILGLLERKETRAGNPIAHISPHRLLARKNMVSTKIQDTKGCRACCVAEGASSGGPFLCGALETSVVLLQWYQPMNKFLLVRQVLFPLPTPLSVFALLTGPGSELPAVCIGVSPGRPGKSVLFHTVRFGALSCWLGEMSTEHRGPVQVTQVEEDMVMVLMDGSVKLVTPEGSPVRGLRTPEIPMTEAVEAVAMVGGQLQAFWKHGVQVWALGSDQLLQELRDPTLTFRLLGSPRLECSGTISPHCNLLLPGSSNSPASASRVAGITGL

inhibition at 1 µM [%]	inhibition at 10 µM [%]	IC50 [nM]	SMILES
25.1	61.1	–	C/C(Nc1cc(C)n(CC[C@H](C)O)n1)=C1/C(=O)Nc2cnc(-c3cnccc3C)cc21 [Example 195, (S,Z)-3-(1-((1-(3-Hydroxybutyl)-5-methyl-1H-pyrazol-3-yl)amino)ethylidene)-5-(4-methylpyridin-3-yl)-1H-pyrrolo[2,3-c]pyridin-2(3H)-one]
65	66.3	< 50	C/C(Nc1ccn(CC[C@H](C)O)n1)=C1/C(=O)Nc2cnc(-c3cnccc3C)cc21 [Example 196, (S,Z)-3-(1-((1-(3-hydroxybutyl)-1H-pyrazol-3-yl)amino)ethylidene)-5-(4-methylpyridin-3-yl)-1H-pyrrolo[2,3-c]pyridin-2(3H)-one]
69.8	70.1	< 50	C/C(Nc1cc(C)n(C(C)(C)C#N)n1)=C1/C(=O)Nc2cnc(-c3cnccc3C)cc21 [Example 197, (Z)-2-Methyl-2-(5-methyl-3-((1-(5-(4-Methylpyridin-3-yl)-2-oxo-1H-pyrrolo[2,3-c]pyridin-3(2H)-ylidene)ethyl)amino)-1H-pyrazol-1-yl)propanenitrile]
73.8	71.1	< 50	C/C(Nc1cc(C)n([C@H](C)C#N)n1)=C1/C(=O)Nc2cnc(-c3cnccc3C)cc21 [Example 198, (R,Z)-2-(5-Methyl-3-((1-(5-(4-methylpyridin-3-yl)-2-oxo-1H-pyrrolo[2,3-c]pyridin-3(2H)-ylidene)ethyl)amino)-1H-pyrazol-1-yl)propanenitrile]
71.7	–	< 50	C/C(Nc1cc(C)n([C@H](C)C#N)n1)=C1/C(=O)Nc2cnc(-c3c(C)cccc3F)cc21 [Example 199, (R,Z)-2-(3-((1-(5-(2-Fluoro-6-methylphenyl)-2-oxo-1H-pyrrolo[2,3-c]pyridin-3(2H)-ylidene)ethyl)amino)-5-methyl-1H-pyrazol-1-yl)propanenitrile]
70.7	71.9	< 50	C/C(Nc1cc(C)n(CC(C)(C)O)n1)=C1/C(=O)Nc2cnc(-c3c(C)cccc3F)cc21 [Example 200, (Z)-5-(2-Fluoro-6-methylphenyl)-3-(1-((1-(2-hydroxy-2-methylpropyl)-5-methyl-1H-pyrazol-3-yl)amino)ethylidene)-1H-pyrrolo[2,3-c]pyridin-2(3H)-one]
65.7	73.6	< 50	C/C(Nc1cc(C)n(CC(F)F)n1)=C1/C(=O)Nc2cnc(-c3c(C)cccc3F)cc21 [Example 201, (Z)-3-(1-((1-(2,2-Difluoroethyl)-5-methyl-1H-pyrazol-3-yl)amino)ethylidene)-5-(2-fluoro-6-methylphenyl)-1H-pyrrolo[2,3-c]pyridin-2(3H)-one]
75.7	61	< 50	C/C(Nc1cc(C)n(CC(C)C)n1)=C1/C(=O)Nc2cnc(-c3c(C)cccc3F)cc21 [Example 202, (Z)-5-(2-Fluoro-6-methylphenyl)-3-(1-((1-isobutyl-5-methyl-1H-pyrazol-3-yl)amino)ethylidene)-1H-pyrrolo[2,3-c]pyridin-2(3H)-one]
67.6	83	< 50	C/C(Nc1cc(C)n(CCC(C)(C)O)n1)=C1/C(=O)Nc2cnc(-c3c(C)cccc3F)cc21 [Example 203, (Z)-5-(2-Fluoro-6-methylphenyl)-3-(1-((1-(3-hydroxy-3-methylbutyl)-5-methyl-1H-pyrazol-3-yl)amino)ethylidene)-1H-pyrrolo[2,3-c]pyridin-2(3H)-one]
72.7	86.1	< 50	C/C(Nc1cc(C)n(CCC(C)C)n1)=C1/C(=O)Nc2cnc(-c3cnccc3C)cc21 [Example 204, (Z)-3-(1-((1-Isopentyl-5-methyl-1H-pyrazol-3-yl)amino)ethylidene)-5-(4-methylpyridin-3-yl)-1H-pyrrolo[2,3-c]pyridin-2(3H)-one]
73.3	–	< 50	C/C(Nc1ncc(C)s1)=C1/C(=O)Nc2cnc(-c3c(C)cccc3F)cc21 [Example 205, (Z)-5-(2-Fluoro-6-methylphenyl)-3-(1-((5-methylthiazol-2-yl)amino)ethylidene)-1H-pyrrolo[2,3-c]pyridin-2(3H)-one]
72.4	84.9	< 50	C/C(Nc1cc2n(n1)CC(=O)N(C(C)C)C2)=C1/C(=O)Nc2cnc(-c3c(C)cccc3F)cc21 [Example 206, (Z)-2-((1-(5-(2-Fluoro-6-methylphenyl)-2-oxo-1H-pyrrolo[2,3-c]pyridin-3(2H)-ylidene)ethyl)amino)-5-isopropyl-4,5-dihydropyrazolo[1,5-a]pyrazin-6(7H)-one]
73.8	–	< 50	C/C(Nc1cc(C)n(C(C)(C)C#N)n1)=C1/C(=O)Nc2cnc(-c3c(C)cccc3F)cc21 [Example 207, (Z)-2-(3-((1-(5-(2-Fluoro-6-methylphenyl)-2-oxo-1H-pyrrolo[2,3-c]pyridin-3(2H)-ylidene)ethyl)amino)-5-methyl-1H-pyrazol-1-yl)-2-methylpropanenitrile]
79.7	–	< 50	C/C(Nc1cc(C)n([C@@H](C)C#N)n1)=C1/C(=O)Nc2cnc(-c3c(C)cccc3F)cc21 [Example 208, (S,Z)-2-(3-((1-(5-(2-Fluoro-6-methylphenyl)-2-oxo-1H-pyrrolo[2,3-c]pyridin-3(2H)-ylidene)ethyl)amino)-5-methyl-1H-pyrazol-1-yl)propanenitrile]
75.7	78.9	< 50	C/C(Nc1cc(C)n(C[C@H](C)O)n1)=C1/C(=O)Nc2cnc(-c3c(C)cccc3F)cc21 [Example 209, (S,Z)-5-(2-Fluoro-6-methylphenyl)-3-(1-((1-(2-hydroxypropyl)-5-methyl-1H-pyrazol-3-yl)amino)ethylidene)-1H-pyrrolo[2,3-c]pyridin-2(3H)-one]
70.8	–	< 50	C/C(Nc1cc(C)n(C)n1)=C1/C(=O)Nc2cnc(-c3cc(F)ccc3C)cc21 [Example 210, (Z)-3-(1-((1,5-Dimethyl-1H-pyrazol-3-yl)amino)ethylidene)-5-(5-fluoro-2-methylphenyl)-1H-pyrrolo[2,3-c]pyridin-2(3H)-one]
76.9	79.4	< 50	C/C(Nc1cc(C)n(C(C)C)n1)=C1/C(=O)Nc2cnc(-c3cnccc3C)cc21 [Example 211, (Z)-3-(1-((1-Isopropyl-5-methyl-1H-pyrazol-3-yl)amino)ethylidene)-5-(4-methylpyridin-3-yl)-1H-pyrrolo[2,3-c]pyridin-2(3H)-one]
63.1	74.4	< 50	CCn1nc(N/C(C)=C2\C(=O)Nc3cnc(-c4c(C)cccc4F)cc32)cc1C [Example 212, (Z)-3-(1-((1-Ethyl-5-methyl-1H-pyrazol-3-yl)amino)ethylidene)-5-(2-fluoro-6-methylphenyl)-1H-pyrrolo[2,3-c]pyridin-2(3H)-one]
60.2	69.5	< 50	C/C(Nc1cc(C)n(CC(F)F)n1)=C1/C(=O)Nc2cnc(-c3cc(F)ccc3C)cc21 [Example 213, (Z)-3-(1-((1-(2,2-Difluoroethyl)-5-methyl-1H-pyrazol-3-yl)amino)ethylidene)-5-(5-fluoro-2-methylphenyl)-1H-pyrrolo[2,3-c]pyridin-2(3H)-one]
69.7	67.7	< 50	C/C(Nc1cc(C)n([C@@H](C)C#N)n1)=C1/C(=O)Nc2cnc(-c3cnccc3C)cc21 [Example 214, (S,Z)-2-(5-Methyl-3-((1-(5-(4-methylpyridin-3-yl)-2-oxo-1H-pyrrolo[2,3-c]pyridin-3(2H)-ylidene)ethyl)amino)-1H-pyrazol-1-yl)propanenitrile]
67.3	–	< 50	C/C(Nc1cc(C)n(C(F)F)n1)=C1/C(=O)Nc2cnc(-c3cc(F)ccc3C)cc21 [Example 215, (Z)-3-(1-((1-(Difluoromethyl)-5-methyl-1H-pyrazol-3-yl)amino)ethylidene)-5-(5-fluoro-2-methylphenyl)-1H-pyrrolo[2,3-c]pyridin-2(3H)-one]
72.1	68.6	< 50	C/C(Nc1cc(C)n(C[C@@H](C)O)n1)=C1/C(=O)Nc2cnc(-c3c(C)cccc3F)cc21 [Example 216, (R,Z)-5-(2-Fluoro-6-methylphenyl)-3-(1-((1-(2-hydroxypropyl)-5-methyl-1H-pyrazol-3-yl)amino)ethylidene)-1H-pyrrolo[2,3-c]pyridin-2(3H)-one]
77.7	–	< 50	C/C(Nc1cc2n(n1)CCOC2)=C1/C(=O)Nc2cnc(-c3cc(F)ccc3C)cc21 [Example 218, (Z)-3-(1-((6,7-Dihydro-4H-pyrazolo[5,1-c][1,4]oxazin-2-yl)amino)ethylidene)-5-(5-fluoro-2-methylphenyl)-1H-pyrrolo[2,3-c]pyridin-2(3H)-one]
